Data published in US7319103B2, “Non-imidazole tertiary amines as histamine 3 receptor inhibitors for the treatment of cognitive and sleep disorders, obesity and other CNS disorders” (Athersys, Inc., priority 2004, dated 2008).

Columns and labels:
[1] = target: mouse H3 receptor (Mus musculus, UniProt P58406); experiment: Radioligand competition binding assay, mouse H3 receptor; details: competition binding vs [3H]Nα-methylhistamine (~2 nM), membranes of cells expressing mouse H3 receptor
Description: (§1) Representative compounds of the present invention that were prepared by the procedures of the Examples were evaluated in binding assays against cells expressing the mouse and human H3 receptor by the following procedure.
(§2) Cells were washed with cold PBS buffer twice, scraped off the plates, and centrifuged at 1000×g for 5 minutes. Cells were resuspended in ice-cold buffer of 10 mM Tris, pH 7.4, 5 mM EDTA, protease inhibitor cocktail tablets (Roche Molecular Biochemicals) and incubated on ice for 10 minutes. The mixture was then homogenized with a dounce homogenizer or a polytron tissue grinder and centrifuged at 1000×g for 10 min at 4° C. The supernatant was centrifuged at 32,000×g for 30 min at 4° C. The membrane pellet was resuspended in a buffer of 50 mM Tris, pH 7.4 with protease inhibitor cocktail tablets and stored at −80° C. until use. Protein concentration was determined by the methods of Bradford.
(§3) Membranes were homogenized in buffer containing 50 mM Tris/HCl, 1 mM EDTA pH 7.4, and protease inhibitor cocktail tablets. Dissociation constants of radioligand (KD values) and maximum binding sites (Bmax) were determined in saturation binding experiments. Ki and IC50 were determined in competition binding assays using a fixed amount of radioligand.
(§4) Saturation binding assays were carried out in 96-well polypropylene plates in triplicate or quadruplicate. Reaction mixtures contained 100 μl of membrane suspension (˜100 μg/well), 50 μl of 4% DMSO, 50 μl of increasing amounts of [^3H]N^α-methylhistamine (final concentration of 0.01-20 nM). Nonspecific binding was defined with 10 uM clobenpropit. Competition binding assays were performed in a reaction mixture containing 100 μl of membrane suspension, 50 μl of [H]N^α-methylhistamine (final concentration of ˜2 nM), and 50 μl compounds. […] Incubations were carried out for 1.5 hours at room temperature. Reactions were terminated by rapid filtration over glass fibre GF/C filters (Perkin Elmers, MA) that had been presoaked in 0.3% PEI, using a Brandel cell harvester. The filters were washed with 500 ml of ice-cold buffer containing 50 mM Tris-HCl, pH 7.4, and were subsequently dried, impregnated with Meltilex wax scintillate (Perkin Elmers, MA) and counted with a Betaplate scintillation counter (Perkin Elmers, MA).
(§5) All data were analyzed by nonlinear least square curve fitting using Prism 4.0 software. The KD for [^3H]N^α-methylhistamine and the Bmax were derived from equation RL=RfL/(KD+L). RL is concentration of receptor-bound ligand at equilibrium, L is the free ligand concentration, Rf is the total receptor concentration. For competition binding experiments, IC50 (the concentration of compound producing 50% inhibition of specific binding) was derived from fitting to a 4-parameter logistic equation. Apparent Ki values were calculated using the Cheng-Prussof equation of Ki=IC50/(1+(L)/Kd), L is the ligand concentration. Agonist stimulation and antagonist inhibition in FLIPR were fitted to sigmoidal dose response using equation Y=Bottom+(Top-Bottom)/(1+10^((LogEC50-X))), X is the logarithm of concentration of compounds. Y is the response.

[2] = target: T1, human H3 receptor (Homo sapiens, UniProt Q9Y5N1); experiment: Radioligand competition binding assay, human H3 receptor (HT1080 cell membranes); details: competition binding vs [3H]Nα-methylhistamine (~2 nM), membranes of HT1080 cells expressing human H3 receptor
T1 construct: Expression of this receptor was provided by utilization of the RAGE methodology; endogenous in cells; host or cells: HT1080 (human fibrosarcoma) cells, H3 expression switched on by RAGE; co-transfected with chimeric G-protein Gqαi5
T1 sequence (Q9Y5N1 whole entry): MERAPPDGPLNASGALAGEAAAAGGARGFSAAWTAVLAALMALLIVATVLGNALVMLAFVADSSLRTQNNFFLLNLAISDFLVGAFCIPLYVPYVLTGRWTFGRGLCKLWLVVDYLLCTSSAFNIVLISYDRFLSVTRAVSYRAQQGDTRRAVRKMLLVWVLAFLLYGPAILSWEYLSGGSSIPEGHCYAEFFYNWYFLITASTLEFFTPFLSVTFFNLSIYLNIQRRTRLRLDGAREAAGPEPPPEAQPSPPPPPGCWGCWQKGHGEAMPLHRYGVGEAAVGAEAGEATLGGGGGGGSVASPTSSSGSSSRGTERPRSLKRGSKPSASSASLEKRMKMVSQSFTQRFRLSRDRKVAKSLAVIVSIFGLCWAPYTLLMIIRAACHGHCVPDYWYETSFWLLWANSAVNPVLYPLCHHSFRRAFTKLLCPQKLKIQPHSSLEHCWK
Description: as §1
An HT1080 cell line was produced that expresses the human H3 receptor. Expression of this receptor was provided by utilization of the RAGE methodology (Harrington et al., 2001) Nature Biotechol. 19:440-5. This cell line was transfected with the chimeric G-protein Gqαi5 (Conklin et al., 1993) Nature 363:274-6 to facilitate assessment of receptor activation through the analysis of intercellular Ca^++ levels using a fluorescence assay. The HT1080 cells expressing human histamine H3 receptor and Gqαi5 were grown in alpha-modified MEM containing 10% FBS, 3 ug/ml puromycin, 7 ug/ml blasticidin, and 3.2 uM methotrexate at 37° C. in 5% CO2/95% atmosphere.
as §2, §3, §4, §5

Sequence of mouse H3 receptor (P58406 whole entry): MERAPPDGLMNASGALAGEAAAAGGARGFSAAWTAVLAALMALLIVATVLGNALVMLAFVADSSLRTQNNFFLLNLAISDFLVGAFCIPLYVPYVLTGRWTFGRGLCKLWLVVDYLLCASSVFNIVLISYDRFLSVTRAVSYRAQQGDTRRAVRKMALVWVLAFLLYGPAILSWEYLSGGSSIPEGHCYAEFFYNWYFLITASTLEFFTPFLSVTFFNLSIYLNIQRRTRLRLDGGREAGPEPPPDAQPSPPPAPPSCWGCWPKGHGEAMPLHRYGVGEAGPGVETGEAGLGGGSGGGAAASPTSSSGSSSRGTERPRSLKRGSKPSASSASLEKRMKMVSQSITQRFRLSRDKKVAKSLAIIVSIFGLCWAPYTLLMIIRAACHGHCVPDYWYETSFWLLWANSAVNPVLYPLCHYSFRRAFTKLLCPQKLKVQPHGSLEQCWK

Ki [1] [nM]	Ki [2] [nM]	SMILES
< 500	< 50	c1cc2nc3c(c(-c4ccc5oc(CCN6CCCC6)cc5c4)n2n1)CCC3 [8-[2-(2-Pyrrolidin-1-yl-ethyl)-benzofuran-5-yl]-6,7-dihydro-5H-1,4,8a-triaza-s-indacene]
< 500	< 50	c1ccc2c(-c3ccc(OCCCN4CCCC4)cc3)c3c(nc2c1)CCCCC3 [11-[4-(3-Pyrrolidin-1-yl-propoxy)-phenyl]-7,8,9,10-tetrahydro-6H-cyclohepta[b]quinoline]
< 50	< 50	c1cc2nc3c(c(-c4ccc(OCCCN5CCCC5)cc4)n2n1)CCC3 [8-[4-(3-Pyrrolidin-1-yl-propoxy)-phenyl]-6,7-dihydro-5H-1,4,8a-triaza-s-indacene]
< 500	< 50	CN(C)CCCOc1ccc(-c2c3c(nc4ccnn24)CCC3)cc1 [{3-[4-(6,7-Dihydro-5H-1,4,8a-triaza-s-indacen-8-yl)-phenoxy]-propyl}-dimethyl-amine]
< 50	< 50	C[C@@H]1CCCN1CCCOc1ccc(-c2c3c(nc4ccnn24)CCCCC3)cc1 [10-{4-[3-(2-(R)-Methyl-pyrrolidin-1-yl)-propoxy]-phenyl}-6,7,8,9-tetrahydro-5H-1,4,10a-triaza-cyclohepta[f]indene]
< 500	< 50	C[C@@H]1CC[C@@H](C)N1CCCOc1ccc(-c2c3c(nc4ccnn24)CCCCC3)cc1 [10-{4-[3-(2,5-(R,R)-Dimethyl-pyrrolidin-1-yl)-propoxy]-phenyl}-6,7,8,9-tetrahydro-5H-1,4,10a-triaza-cyclohepta[f]indene]
< 50	< 50	c1cc2nc3c(c(-c4ccc(OCCCN5CCCCC5)cc4)n2n1)CCC3 [8-[4-(3-Piperidin-1-yl-propoxy)-phenyl]-6,7-dihydro-5H-1,4,8a-triaza-s-indacene]
< 500	< 50	c1cc2nc3c(c(-c4ccc5oc(CCN6CCCCC6)cc5c4)n2n1)CCC3 [8-[2-(2-Piperidin-1-yl-ethyl)-benzofuran-5-yl]-6,7-dihydro-5H-1,4,8a-triaza-s-indacene]
< 500	< 50	CCN(CC)CCCOc1ccc(-c2c3c(nc4ccnn24)CCCCC3)cc1 [Diethyl-{3-[4-(6,7,8,9-tetrahydro-5H-1,4,10a-triaza-cyclohepta[f]inden-10-yl)-phenoxy]-propyl}-amine]
< 50	< 50	CC1CCCN1CCc1cc2cc(-c3c4c(nc5ccnn35)CCC4)ccc2o1 (centres unmarked) [8-{2-[2-(2-Methyl-pyrrolidin-1-yl)-ethyl]-benzofuran-5-yl}-6,7-dihydro-5H-1,4,8a-triaza-s-indacene]
< 500	< 50	c1cc2nc3c(c(-c4ccc5oc(CCN6CCOCC6)cc5c4)n2n1)CCCC3 [9-[2-(2-Morpholin-4-yl-ethyl)-benzofuran-5-yl]-5,6,7,8-tetrahydro-pyrazolo[5,1-b]quinazoline]
< 50	< 50	COC[C@@H]1CCCN1CCc1cc2cc(-c3c4c(nc5ccnn35)CCC4)ccc2o1 [8-{2-[2-(2-(S)-Methoxymethyl-pyrrolidin-1-yl)-ethyl]-benzofuran-5-yl}-6,7-dihydro-5H-1,4,8a-triaza-s-indacene]
< 500	< 5000	CN(CCCOc1ccc(-c2c3c(nc4ccnn24)CCCCC3)cc1)Cc1ccco1 [Furan-2-ylmethyl-methyl-{3-[4-(6,7,8,9-tetrahydro-5H-1,4,10a-triaza-cyclohepta[f]inden-10-yl)-phenoxy]-propyl}-amine]
